Data published in patent US4443605A, “7β-Arylalkyl-6α, 7 α-oxymethylene-3-methoxy or 3-hydroxy-4, 5α-epoxy-17 methyl or 17-cycloalkyl-methyl morphinans” (Miles Laboratories, Inc., priority 1982, dated 1984).
Like-named read-outs stand apart in the source and are kept apart here.

Tested on: mice
Test: Acetic Acid Induced Mouse Writhing Test
Format: in vivo, mouse (male CD-1)
Conditions: for ED50: sc
Method: Analgesic effects of the test compounds were determined in mice by use of the acetic acid induced writhing test described by B. A. Whittle, Brit. J. Pharmacol., 22:246 (1964). In this test, at least 3 groups of 5 male CD-1 mice each were given subcutaneous doses of the test drug dissolved in distilled water. In all cases, 0.4 mL of a 0.5% v/v acetic acid in distilled water solution was administered intraperitoneally 15 min. post drug. The number of writhes in a 20 min. interval beginning 5 min. after the acetic acid injection were determined and compared with the number of writhes in a control group which had received only acetic acid.
Percent inhibition of writhing was calculated as: [formula]
The ED50 dose, i.e., the dose required to reduce the number of writhes by 50%, was determined graphically from a plot of % inhibition as a probit verus log dose. […] See Lichtfield, J. T. and Wilcoxon, F., J. Pharmacol. Exp. Ther., 96, 99-113 (1949).
The results of this testing, both in terms of μ mole/kg and mg/kg of the compound tested, are set out in table I.

[1] = 0.25 h, Analgesic Activity In Mouse Writhing Assay - Subcutaneous Inj., acetic acid i.p. 15 min post drug, * = d-tartrate salt, read-out: ED50 (mg/kg)
[2] = 0.25 h, Analgesic Activity In Mouse Writhing Assay - Subcutaneous Inj., acetic acid i.p. 15 min post drug, * = d-tartrate salt, read-out: ED50 (μmole/kg)

SMILES | ED50 [1] [mg/kg] | ED50 [2] [µmol/kg] | activity in the acetic acid induced writhing assay (at 10 mg/kg) | ED50 (Mus musculus, acetic acid induced writhing assay, contrasted with compound 8, read-out: ED50 in the same assay) [mg/kg]
Oc1ccc2c3c1O[C@H]1[C@H]4OC[C@@]4(CCCc4ccccc4)C[C@H]4[C@@H](C2)N(CC2CC2)CC[C@@]341 [Compound 24Pd] | 0.0015 | 0.003 | – | –
COc1ccc2c3c1O[C@H]1[C@H]4OC[C@@]4(CCCc4ccccc4)C[C@H]4[C@@H](C2)N(CC2CCC2)CC[C@@]341 [Compound 23Bd] | 2.8 | 4.4 | – | –
CN1CC[C@]23c4c5ccc(O)c4O[C@H]2[C@H]2OC[C@@]2(CCc2ccccc2)C[C@H]3[C@H]1C5 [Compound 20c] | 0.024 | 0.048 | – | –
COc1ccc2c3c1O[C@H]1[C@H]4OC[C@@]4(CCCc4ccccc4)C[C@H]4[C@@H](C2)N(C)CC[C@@]341 [Compound 17d] | 0.027 | 0.046 | – | –
COc1ccc2c3c1O[C@H]1[C@H]4OC[C@@]4(CCCCCc4ccccc4)C[C@H]4[C@@H](C2)N(C)CC[C@@]341 [Compound 17f] | 0.82 | 1.3 | – | –
CN1CC[C@]23c4c5ccc(O)c4O[C@H]2[C@H]2OC[C@@]2(CCCCCc2ccccc2)C[C@H]3[C@H]1C5 [Compound 20f] | 0.017 | 0.028 | – | –
COc1ccc2c3c1O[C@H]1[C@H]4OC[C@@]4(CCCCc4ccccc4)C[C@H]4[C@@H](C2)N(CC2CCC2)CC[C@@]341 [Compound 23Be] | 1.8 | 2.8 | – | –
COc1ccc2c3c1O[C@H]1[C@H]4OC[C@@]4(CCc4ccccc4)C[C@H]4[C@@H](C2)N(C)CC[C@@]341 [Compound 17c] | 0.5 | 0.9 | – | –
Oc1ccc2c3c1O[C@H]1[C@H]4OC[C@@]4(CCCc4ccccc4)C[C@H]4[C@@H](C2)N(CC2CCC2)CC[C@@]341 [Compound 24Bd] | 0.0375 | 0.06 | – | –
Oc1ccc2c3c1O[C@H]1[C@H]4OC[C@@]4(CCCCc4ccccc4)C[C@H]4[C@@H](C2)N(CC2CCC2)CC[C@@]341 [Compound 24Be] | 0.22 | 0.05 | – | –
COc1ccc2c3c1O[C@H]1[C@@H]4OC[C@]4(CCCCc4ccccc4)C[C@H]4[C@@H](C2)N(C)CC[C@@]341 [Compound 8, 4,5α-Epoxy-3-methoxy-17-methyl-7α-(4-phenylbutyl)-6β,7β-(oxymethylene)-morphinan] | – | – | inactive | –
Oc1ccc2c3c1O[C@H]1[C@H]4OC[C@@]4(CCc4ccccc4)C[C@H]4[C@@H](C2)N(CC2CC2)CC[C@@]341 [Compound 24Pc] | 0.018 | 0.04 | – | –
Oc1ccc2c3c1O[C@H]1[C@H]4OC[C@@]4(CCc4ccccc4)C[C@H]4[C@@H](C2)N(CC2CCC2)CC[C@@]341 [Compound 24Bc] | 0.177 | 0.39 | – | –
COc1ccc2c3c1O[C@H]1[C@H]4OC[C@@]4(CCc4ccccc4)C[C@H]4[C@@H](C2)N(CC2CC2)CC[C@@]341 [Compound 23Pc] | 0.26 | 0.57 | – | –
Oc1ccc2c3c1O[C@H]1[C@H]4OC[C@@]4(CCCCc4ccccc4)C[C@H]4[C@@H](C2)N(CC2CC2)CC[C@@]341 [Compound 24Pe] | 0.01 | 0.015 | – | –
CN1CC[C@]23c4c5ccc(O)c4O[C@H]2[C@H]2OC[C@@]2(CCCCc2ccccc2)C[C@H]3[C@H]1C5 [Compound 20e] | 0.014 | 0.024 | – | –
COc1ccc2c3c1O[C@H]1[C@H]4OC[C@@]4(CCc4ccccc4)C[C@H]4[C@@H](C2)N(CC2CCC2)CC[C@@]341 [Compound 23Bc] | > 10 | > 16 | – | –
COc1ccc2c3c1O[C@H]1[C@H]4OC[C@@]4(CCCCc4ccccc4)C[C@H]4[C@@H](C2)N(CC2CC2)CC[C@@]341 [Compound 23Pe] | 0.39 | 0.61 | – | –
CN1CC[C@]23c4c5ccc(O)c4O[C@H]2[C@H]2OC[C@@]2(CCCc2ccccc2)C[C@H]3[C@H]1C5 [Compound 20d] | 0.011 | 0.019 | – | –
COc1ccc2c3c1O[C@H]1[C@H]4OC[C@@]4(CCCc4ccccc4)C[C@H]4[C@@H](C2)N(CC2CC2)CC[C@@]341 [Compound 23Pd] | 0.67 | 1.07 | – | –
COc1ccc2c3c1O[C@H]1[C@H]4OC[C@@]4(CCCCc4ccccc4)C[C@H]4[C@@H](C2)N(C)CC[C@@]341 [Compound 17e] | 0.0028 | 0.005 | – | 0.003
